The compounds below were run on diamondback moth (Plutella xylostella) (assay: Insecticidal effect on diamondback moth (Test Example 1)). Conditions: diamondback moth; mortality judged by criterion of Test Example 1.
Format: in vivo
Experimental: Insecticidal effect on diamondback moth (Plutella xylostella) Adult diamondback moths were released and allowed to oviposit on a Chinese cabbage seedling. […] After air-drying, it was allowed to stand in a room thermostated at 25° C. Six days after the immersion, the hatched insects were counted. The mortality was calculated according to the following equation and the insecticidal effect was judged according to the criterion shown below. The test was carried out with triplicate groups of 10 insects. [table]

SMILES	Insecticidal effect, Test Example 1
CCOCCNC(=O)c1cccc(I)c1C(=O)Nc1ccc(C(F)(F)C(F)(F)F)cc1C [compound 984]	A (100)
C=CCNC(=O)c1cccc(I)c1C(=O)Nc1ccc(C(F)(F)C(F)(F)F)cc1C [compound 988]	A (100)
Cc1cc(C(F)(F)C(F)(F)F)ccc1NC(=O)c1c(I)cccc1C(=O)NC1CCCC1 [compound 992]	A (100)
Cc1cc(C(F)(F)C(F)(F)F)ccc1NC(=O)c1c(I)cccc1C(=O)NCC(C)C [compound 1006]	A (100)
Cc1cc(C(F)(F)C(F)(F)F)ccc1NC(=O)c1c(I)cccc1C(=O)NC1CC1 [compound 1025]	A (100)
Cc1cc(C(F)(F)C(F)(F)F)ccc1NC(=O)c1c(I)cccc1C(=O)NC(C)C(C)C (stereo not shown) [compound 1034]	A (100)
CCCNC(=O)c1cccc(I)c1C(=O)Nc1ccc(OC(F)(F)C(F)F)cc1C [compound 1059]	A (100)
CC(C)(C)NC(=O)c1ccccc1C(=O)Nc1ccc2c(c1)OC(F)(F)C(F)(F)O2 [compound 1065]	A (100)
Cc1cc(C(F)(F)C(F)(F)F)ccc1NC(=O)c1cccc(I)c1C(=O)N1CCCCC1 [compound 1082]	A (100)
Cc1cc(C(F)(F)C(F)(F)F)ccc1NC(=O)c1cccc(I)c1C(=O)N1CCC(C)CC1 [compound 1083]	A (100)
CCN(CC)C(=O)c1cccc([N+](=O)[O-])c1C(=O)Nc1ccc(OC(F)(F)C(F)F)cc1C [compound 1137]	A (100)
CCN(CC)C(=O)c1cccc([N+](=O)[O-])c1C(=O)Nc1ccc(OC(F)(F)F)cc1 [compound 1139]	A (100)
CCN(CC)C(=O)c1c(I)cccc1C(=O)Nc1ccc2oc(-c3ccc(C(F)(F)F)cc3)nc2c1 [compound 1175]	A (100)
CCN(CC)C(=O)c1c(I)cccc1C(=O)Nc1ccc2nc(-c3ccccc3C(F)(F)F)oc2c1 [compound 1178]	A (100)
CC(C)NC(=O)c1c(I)cccc1C(=O)Nc1ccc2nc(C(F)(F)C(F)(F)F)oc2c1 [compound 1180]	A (100)
CC(C)(C)NC(=O)c1c(I)cccc1C(=O)Nc1ccc2nc(C(F)(F)C(F)(F)F)oc2c1 [compound 1181]	A (100)
CCN(CC)C(=O)c1c(I)cccc1C(=O)Nc1ccc2nc(C(F)(F)C(F)(F)F)oc2c1 [compound 1182]	A (100)
CCN(CC)C(=O)c1c(OC(F)(F)F)cccc1C(=O)Nc1ccc(C(F)(C(F)(F)F)C(F)(F)F)cc1C [compound 1238]	A (100)
Cc1cc(OC(F)(F)F)ccc1NC(=O)c1cc(I)ccc1C(=O)NC(C)C [compound 1247]	C (89-80)
Cc1cc(OC(F)(F)C(F)F)ccc1NC(=O)c1cc(I)ccc1C(=O)NC(C)C [compound 1249]	A (100)
Cc1cc(OC(F)(F)F)ccc1NC(=O)c1ccc(F)c(Cl)c1C(=O)NC(C)(C)C [compound 1260]	A (100)
Cc1cc(OC(F)(F)F)ccc1NC(=O)c1ccc(F)c(F)c1C(=O)NC(C)C [compound 1283]	A (100)
Cc1cc(OC(F)(F)F)ccc1NC(=O)c1cc(F)c(F)cc1C(=O)NC(C)(C)C [compound 1288]	A (100)
Cc1cc(OC(=C(C(F)(F)F)C(F)(F)F)C(F)(F)C(F)(F)F)ccc1NC(=O)c1cccc(Cl)c1C(=O)NC(C)C [compound 1291]	A (100)
Cc1cc(C(F)(F)C(F)(F)F)ccc1NC(=O)c1cccc(Cl)c1C(=O)NCCc1ccccc1 [compound 1319]	A (100)
Cc1cc(C(F)(F)C(F)(F)F)ccc1NC(=O)c1c(Cl)cccc1C(=O)NC(C)c1ccccc1 (stereo not shown) [compound 1322]	A (100)
CCCONC(=O)c1c(Cl)cccc1C(=O)Nc1ccc(C(F)(F)C(F)(F)F)cc1C [compound 1327]	A (100)
CCCONC(=O)c1cccc(Cl)c1C(=O)Nc1ccc(C(F)(F)C(F)(F)F)cc1C [compound 1328]	A (100)

Same assay, conditions: mortality judged according to the criterion shown in Test Example 1

SMILES	Insecticidal effect on diamondback moth (Test Example 1), judged grade
Cc1cc(Cl)ccc1NC(=O)c1cccc(S(=O)(=O)C(C)C)c1C(=O)NC(C)C [compound 796]	A (100)
COC(=O)c1cccc(C(=O)NC(C)C)c1C(=O)Nc1ccc(Cl)cc1C [compound 802]	D (79-50)
CC(C)NC(=O)c1cccc(-c2ccccc2)c1C(=O)Nc1ccc(OC(F)(F)F)cc1 [compound 808]	A (100)
CC(C)N(C)C(=O)c1ccccc1C(=O)Nc1ccc(C(F)(F)F)cc1 [compound 824]	A (100)
Cc1cc(OC(F)F)ccc1NC(=O)c1cccc([N+](=O)[O-])c1C(=O)N(C)C(C)C [compound 825]	A (100)
Cc1cc(Cl)ccc1N(C)C(=O)c1ccccc1C(=O)NC(C)C [compound 827]	A (100)
CCCCNC(=O)c1c(C(=O)Nc2cc(Cl)ccc2C)cccc1[N+](=O)[O-] [compound 830]	C (89-80)
Cc1cc(OC(F)F)ccc1NC(=O)c1cccc([N+](=O)[O-])c1C(=O)NCC(C)C [compound 832]	A (100)
CCC(C)NC(=O)c1ccccc1C(=O)Nc1ccc(C(F)(F)F)cc1 (stereo not shown) [compound 835]	A (100)
CCC(C)NC(=O)c1cccc(Cl)c1C(=O)Nc1ccc(OC(F)F)cc1C (stereo not shown) [compound 837]	A (100)
CCC(CC)NC(=O)c1c(C(=O)Nc2ccc(OC(F)F)cc2C)cccc1[N+](=O)[O-] [compound 845]	A (100)
Cc1cc(OC(F)F)ccc1NC(=O)c1cccc([N+](=O)[O-])c1C(=O)NC(C)C(C)C (stereo not shown) [compound 846]	A (100)
O=C(Nc1ccc(C(F)(F)F)cc1)c1ccccc1C(=O)NC1CC1 [compound 848]	A (100)
Cc1ccc(Cl)cc1NC(=O)c1cccc([N+](=O)[O-])c1C(=O)NC1CCC1 [compound 854]	A (100)
Cc1ccc(F)cc1NC(=O)c1cccc([N+](=O)[O-])c1C(=O)NC1CCC1 [compound 855]	A (100)
Cc1ccc(Cl)cc1NC(=O)c1cccc([N+](=O)[O-])c1C(=O)NC1CCCCC1 [compound 859]	D (79-50)
Cc1ccc(F)cc1NC(=O)c1cccc([N+](=O)[O-])c1C(=O)NCC1CC1 [compound 860]	A (100)
Cc1ccc(F)cc1NC(=O)c1cccc([N+](=O)[O-])c1C(=O)NCCCl [compound 861]	A (100)

SMILES	Insecticidal effect on diamondback moth (Test Example 1), judged grade
Cc1ccc(Cl)cc1NC(=O)c1ccccc1C(=O)NCC(F)(F)F [compound 864]	A (100)
C=CCNC(=O)c1ccccc1C(=O)Nc1ccc(C(F)(F)F)cc1 [compound 865]	A (100)
C=CCNC(=O)c1c(C(=O)Nc2cc(Cl)ccc2C)cccc1[N+](=O)[O-] [compound 866]	D (79-50)
C#CCNC(=O)c1c(C(=O)Nc2ccc(OC(F)F)cc2C)cccc1[N+](=O)[O-] [compound 870]	A (100)
COCCNC(=O)c1c(C(=O)Nc2cc(Cl)ccc2C)cccc1[N+](=O)[O-] [compound 871]	A (100)
CCOC(CNC(=O)c1c(C(=O)Nc2ccc(OC(F)F)cc2C)cccc1[N+](=O)[O-])OCC [compound 875]	A (100)
Cc1ccc(Cl)cc1NC(=O)c1cccc([N+](=O)[O-])c1C(=O)NC(C)c1ccccc1 (stereo not shown) [compound 878]	C (89-80)
Cc1cc(Br)ccc1NC(=O)c1cccc([N+](=O)[O-])c1C(=O)NCc1cccnc1 [compound 888]	D (79-50)
CC(C)NC(=O)c1cccc(F)c1C(=O)Nc1ccc(Oc2ccc(C(F)(F)F)cc2Cl)cc1F [compound 902]	A (100)
CC(C)NC(=O)c1cccc(Cl)c1C(=O)Nc1ccc(Oc2ccc(C(F)(F)F)cc2Cl)cc1F [compound 904]	A (100)
CC(C)NC(=O)c1cccc(Cl)c1C(=O)Nc1ccc(C=C(Cl)C(F)(F)F)cc1 [compound 912]	A (100)
CC(C)NC(=O)c1c(Cl)cccc1C(=O)Nc1ccc(C=C(Br)Br)cc1 [compound 913]	A (100)
CC(C)NC(=O)c1cccc(Cl)c1C(=O)Nc1ccc(C=C(Br)Br)cc1 [compound 914]	A (100)
CC(C)NC(=O)c1cccc(Cl)c1C(=O)Nc1ccc(C=C(Cl)Cl)cc1 [compound 916]	A (100)
CC(C)NC(=O)c1cccc(I)c1C(=O)Nc1ccc(C=C(Cl)C(F)(F)F)cc1 [compound 918]	A (100)
CCc1cc(I)ccc1NC(=O)c1cccc(I)c1C(=O)NC(C)C [compound 919]	A (100)
CCc1cc(I)ccc1NC(=O)c1c(I)cccc1C(=O)NC(C)C [compound 920]	A (100)
CCc1ccc(Cl)c(CC)c1NC(=O)c1cccc(Cl)c1C(=O)NC(C)C [compound 924]	A (100)

Source: patent US6362369B1, “Phthalic acid diamide derivatives fluorine-containing aniline compounds as starting material, agricultural and horticultural insecticides, and a method for application of the insecticides” (Nihon Nohyaku Co., Ltd., priority 1997, dated 2002)
